Results reported in patent US20190315823A1, “SMALL CATIONIC ANTI-BIOFILM AND IDR PEPTIDES” (priority 2013, published 2019).
Ends that are not written are not given here.

Key:
[1] = test system: methicillin resistant Staphylococcus aureus (MRSA) biofilm; settings: approximate peptide concentration […] (around 3 μg/ml); compared to untreated samples
Experimental: Methods of assessment of anti-biofilm activity—Biofilm formation was initially analyzed using a static abiotic solid surface assay as described elsewhere (de la Fuente-Nunez et al., 2012). Dilutions (1/100) of overnight cultures were incubated in BM2 biofilm-adjusted medium [62 mM potassium phosphate buffer (pH 7), 7 mM (NH4)2SO4, 2 mM MgSO4, 10 μM FeSO4, 0.4% (wt/vol) glucose, 0.5% (wt/vol) Casamino Acids], or a nutrient medium such as Luria Broth, in polypropylene microtiter plates (Falcon, United States) in the absence (control) or presence of peptide. Peptide was added at time zero (prior to adding the diluted, overnight cultures) in varying concentrations, and the decrease in biofilm formation was recorded at 22-46 h for most bacteria. Planktonic cells were removed, biofilm cells adhering to the side of the tubes were stained with crystal violet, and absorbance at 595 nm was measured using a microtiter plate reader (Bio-Tek Instruments Inc., United States). Some peptides were screened against two Gram negative organisms, P. aeruginosa and K. pneumoniae using a Bioflux apparatus (AutoMate Scientific, Berkeley, Calif.; http://www.autom8.com/bioflux_biofilm.html), which allows for the high-throughput, real-time analysis of biofilms.

[2] = test system: LPS-stimulated human peripheral blood mononuclear cells (IL1-β); type: cell-based; settings: Table 12, cells stimulated with 10 ng/ml LPS; for IL1β Production: LPS alone 1313 (HH2 derivatives), 1927 (1018 derivatives), 2455 (1002 and hybrid peptides) pg/ml
Experimental: LPS from P. aeruginosa strain H103 was highly purified free of proteins and lipids using the Darveau-Hancock method. Briefly, P. aeruginosa was grown overnight in LB broth at 37° C. Cells were collected and washed and the isolated LPS pellets were extracted with a 2:1 chloroform:methanol solution to remove contaminating lipids. Purified LPS samples were quantitated using an assay for the specific sugar 2-keto-3-deoxyoctosonic acid (KDO assay) and then resuspended in endotoxin-free water (Sigma-Aldrich).

[3] = test system: human peripheral blood mononuclear cells (MCP-1); assay: SPOT-synthesized derivative screen: production of chemokine MCP-1; type: cell-based; settings: Table 12, No LPS, human PBMC, peptide at ~18-24 μM; for MCP1: background subtracted 139 (HH2 derivatives), 170 (1018 derivatives), 242 (1002 and hybrid peptides) pg/ml
Experimental: Venous blood (20 ml) from healthy volunteers was collected in Vacutainer® collection tubes containing sodium heparin as an anticoagulant (Becton Dickinson, Mississauga, ON) in accordance with UBC ethical approval and guidelines. Blood was diluted 1:1 with complete RPMI 1640 medium and separated by centrifugation over a Ficoll-Paque® Plus (Amersham Biosciences, Piscataway, N.J., USA) density gradient. White blood cells were isolated from the buffy coat, washed twice in RPMI 1640 complete medium, and the number of peripheral blood mononuclear cells (PBMC) was determined by Trypan blue exclusion. PBMC (5×10^5) were seeded into 12-well tissue culture dishes (Falcon; Becton Dickinson) at 0.75 to 1×10^6 cells/ml at 37° C. in 5% CO2. The above conditions were chosen to mimic conditions for circulating blood monocytes entering tissues at the site of infection via extravasation.
Following incubation of the cells under various treatment regimens, the tissue culture supernatants were centrifuged at 1000×g for 5 min, then at 10,000×g for 2 min to obtain cell-free samples. Supernatants were aliquoted and then stored at −20° C. prior to assay for various chemokines by capture ELISA (eBioscience and BioSource International Inc., CA, USA respectively)

Row | Substance | % Biofilm inhibition [1] [%] | Fold change in IL1β relative to no peptide LPS stimulated cells [2] | IL1β Production [2] [pg/mL] | Fold increase in MCP1 cf. untreated cells [3] | MCP1 [3] [pg/mL]
1 | 1018-G9: single substituted 1018 peptide (VRLIVAVRGWRR-NH2) [Peptide 1018-G9] | 67 | 1.13 | 1481 | 0.9 | -17
2 | HH2-K6: single substituted HH2 peptide (VQLRIKVAVIRA-NH2) | 64 | 0.80 | 1055 | 142 | 23989
3 | HH2-K12: single substituted HH2 peptide (VQLRIRVAVIRK-NH2) | 67 | 0.92 | 1203 | 15 | 2329
4 | 1002-L1: single substituted 1002 peptide (LQRWLIVWRIRK-NH2) [Peptide 1002-L1] | 69 | 0.05 | 127 | 13.3 | 2988.6
5 | 1002-Q7: single substituted 1002 peptide (VQRWLIQWRIRK-NH2) [Peptide 1002-Q7] | 45 | 0.06 | 138 | 0.9 | -36.2
6 | 1018-L7: single substituted 1018 peptide (VRLIVALRIWRR-NH2) [Peptide 1018-L7] | 72 | 0.10 | 132 | 0.9 | -10
7 | 1018-I5: single substituted 1018 peptide (VRLIIAVRIWRR-NH2) [Peptide 1018-I5] | 60 | 0.10 | 127 | 13 | 2103
8 | 1002-R12: single substituted 1002 peptide (VQRWLIVWRIRR-NH2) [Peptide 1002-R12] | 62 | 0.05 | 127 | 2.1 | 270.8
9 | 1002-I1: single substituted 1002 peptide (IQRWLIVWRIRK-NH2) [Peptide 1002-I1] | 64 | 0.05 | 127 | 17.7 | 4059.0
10 | HH2-A3: single substituted HH2 peptide (VQARIRVAVIRA-NH2) | 52 | 1.44 | 1886 | 1.3 | 59
11 | 1002-V8: single substituted 1002 peptide (VQRWLIVVRIRK-NH2) [Peptide 1002-V8] | 56 | 0.08 | 198 | 7.1 | 1468.2
12 | 1018-W2: single substituted 1018 peptide (VWLIVAVRIWRR-NH2) [Peptide 1018-W2] | 68 | 0.73 | 962 | 1.5 | 83
13 | HH2-Q10: single substituted HH2 peptide (VQLRIRVAVQRA-NH2) | 61 | 0.90 | 1180 | 31 | 5057
14 | 1002-I12: single substituted 1002 peptide (VQRWLIVWRIRI-NH2) [Peptide 1002-I12] | 66 | 0.05 | 127 | 0.9 | -36.2
15 | 1002-K9: single substituted 1002 peptide (VQRWLIVWKIRK-NH2) [Peptide 1002-K9] | 50 | 0.05 | 127 | 1.6 | 143.9
16 | 1002-R7: single substituted 1002 peptide (VQRWLIRWRIRK-NH2) [Peptide 1002-R7] | 58 | 0.16 | 382 | 2.1 | 270.8
17 | 1018-L6: single substituted 1018 peptide (VRLIVLVRIWRR-NH2) [Peptide 1018-L6] | 69 | 0.26 | 340 | 0.7 | -60
18 | 1018-I11: single substituted 1018 peptide (VRLIVAVRIWIR-NH2) [Peptide 1018-I11] | 16 | 1.35 | 1775 | 1.5 | 83
19 | HH2-W6: single substituted HH2 peptide (VQLRIWVAVIRA-NH2) | 56 | 0.55 | 718 | 4.1 | 534
20 | 1018-W7: single substituted 1018 peptide (VRLIVAWRIWRR-NH2) [Peptide 1018-W7] | 55 | 0.37 | 483 | 0.8 | -28
21 | HH2-I7: single substituted HH2 peptide (VQLRIRIAVIRA-NH2) | 69 | 0.68 | 897 | 8.8 | 1332
22 | 1018-G6: single substituted 1018 peptide (VRLIVGVRIWRR-NH2) [Peptide 1018-G6] | 36 | 0.46 | 598 | 22 | 3560
23 | 1002-L3: single substituted 1002 peptide (VQLWLIVWRIRK-NH2) [Peptide 1002-L3] | 59 | 0.05 | 127 | 1.4 | 106.3
24 | 1002-V3: single substituted 1002 peptide (VQVWLIVWRIRK-NH2) [Peptide 1002-V3] | 49 | 0.05 | 127 | 2.5 | 359.1
25 | HH2-A6: single substituted HH2 peptide (VQLRIAVAVIRA-NH2) | 41 | 1.06 | 1391 | 1.8 | 137
